Laboratory results published in patent US20240115654A1, “INTRAVENOUS ADMINISTRATION OF ENGINEERED ANTIMICROBIAL AMPHIPHILIC PEPTIDES” (priority 2021, published 2024).
Where two headings read alike, the source gives them in different places. Peptide text beside a SMILES is read from it.

Text: All subjects who met eligibility criteria were confined to the clinical research unit from […] through Day 3. At admission, physical examination, vital signs, 12 lead ECG and weight were obtained, medical and medication history were updated if necessary, safety blood tests (hematology and chemistry), urinalysis, urine drug screen and an alcohol breath test were repeated and a urine pregnancy test was done for women of childbearing potential.
At each dose level, there were 2 sentinel subjects, (1 active, 1 placebo), who were dosed at least 48 hours in advance of the other subjects in their respective group. Following review of safety data, including physical examination, vital signs, and review of adverse events from the first 2 subjects, enrolment in the cohort continued.
A 12-lead ECG was performed on Day 1, within 60 minutes of infusion start (in triplicate), mid-way through the infusion, at the completion of the infusion, 30 minutes after completion of the infusion and at various timepoints following the end of the infusion.
Vital signs were recorded within 60 minutes pre-dose, at the mid-point of the infusion and post dose vitals were assessed at completion of the infusion, 0.5, 1, 2, 3, 4, 6, 9, 12, 24 and 48 hours post dose, after at least 3 minutes of rest in supine position.
Subjects returned to the study center 7 days after dosing, for the termination visit. A full physical examination, vital signs and weight were obtained, concomitant medications were updated if necessary, safety blood specimens (haematology and chemistry, PT and aPTT) and urine were collected for urinalysis and urine drug screening. A serum pregnancy test was done for women of childbearing potential and a 12-lead ECG was performed.
In this study dose limiting toxicity (DLT) was defined as any drug related ≥Grade 3 AEs occurring despite optimal therapeutic interventions (which included but were not limited to allergic/hypersensitivity reactions, dermatological reactions/infusion site reactions, haematological toxicities such as neutropenia, thrombocytopenia and anaemia and clinical chemistry abnormalities) experienced up to Day 7 (Termination Visit).
(§1) All subjects who received any amount of study drug were included in the safety analysis (Safety population).
The study was a double blinded, randomized, placebo-controlled study. The placebo administered was 0.9% sodium chloride.
On Day 1 (day of dosing), subjects were randomly assigned either peptide IV or Placebo IV. At each dose level, there were 2 sentinel subjects, (1 active, 1 placebo), who were dosed at least 48 hours in advance of the other subjects in their respective group. Following review of safety data, including physical examination, vital signs, and review of adverse events from the first 2 subjects, enrolment in the cohort continued. All subjects who met eligibility criteria were confined to the clinical research unit from Day −2 through Day 3. At admission, physical examination, vital signs, 12 lead ECG and weight were obtained, medical and medication history were updated if necessary, safety blood tests (hematology and chemistry), urinalysis, urine drug screen and an alcohol breath test were repeated and a urine pregnancy test was done for women of childbearing potential.
as §1

[1] = Cohort 4: 0.5 mg/kg IV 2-hr infusion (N = 6)
[2] = Cohort 4: 0.5 mg/kg IV 2 hr infusion, subject 001-S086
[3] = Cohort 4: 0.5 mg/kg IV 2 hr infusion, subject 001-S093
[4] = Cohort 4: 0.5 mg/kg IV 2 hr infusion, subject 001-S094
[5] = Cohort 5 1 mg/kg IV 4-hr infusion, participant 001-S119
[6] = Cohort 5 1 mg/kg IV 4-hr infusion, participant 001-S127
[7] = Cohort 5: 1 mg/kg IV 4-hr infusion (N = 6)
[8] = Cohorts 1-5, comparing dose level, infusion time, placebo and active

## CC(C)[C@H](NC(=O)[C@H](Cc1c[nH]c2ccccc12)NC(=O)[C@H](CCCNC(=N)N)NC(=O)[C@H](CCCNC(=N)N)NC(=O)[C@@H](NC(=O)[C@@H](NC(=O)[C@H](CCCNC(=N)N)NC(=O)[C@@H](NC(=O)[C@@H](NC(=O)[C@H](CCCNC(=N)N)NC(=O)[C@H](CCCNC(=N)N)NC(=O)[C@H](Cc1c[nH]c2ccccc12)NC(=O)[C@@H](NC(=O)[C@H](CCCNC(=N)N)NC(=O)[C@H](CCCNC(=N)N)NC(=O)[C@@H](NC(=O)[C@H](CCCNC(=N)N)NC(=O)[C@H](CCCNC(=N)N)NC(=O)[C@@H](NC(=O)[C@H](Cc1c[nH]c2ccccc12)NC(=O)[C@H](CCCNC(=N)N)NC(=O)[C@@H](N)CCCNC(=N)N)C(C)C)C(C)C)C(C)C)C(C)C)C(C)C)C(C)C)C(C)C)C(=O)N[C@@H](CCCNC(=N)N)C(=O)N[C@@H](CCCNC(=N)N)C(N)=O [SEQ ID NO: 1] (H-RRWVRRVRRVWRRVVRVVRRWVRR-NH2)
[1]
  Treatment-related TEAE: Skin and Subcutaneous Tissue Disorders, participants n (%): 0
  Treatment-related TEAE: Thrombocytopenia, participants n (%): 0
  Treatment-related TEAE: Vascular Disorders, participants n (%): 0
  Treatment-related TEAE: Vessel puncture site erythema, participants n (%): 0
  Treatment-related TEAE: Vessel puncture site pain, occurrences m: 1
  Treatment-related TEAE: Vessel puncture site pain, participants n (%): 1 (16.7%)
  Treatment-related TEAE: Vomiting, participants n (%): 0
[2]
  Infusion related reaction: End Date/Time: End of Study
  Infusion related reaction: Severity Grade: Grade 1
  Infusion related reaction: Start Date/Time: Day 1/1 hour
Cohort 4: 0.5 mg/kg IV 2 hr infusion, subject 001-S086, 0.5 mg/kg
  Infusion related reaction: Event: Myalgia
[3]
  Infusion related reaction: End Date/Time: Day 1/12 hours
  Infusion related reaction: Event: Discomfort at right
  Infusion related reaction: Severity Grade: Grade 1
[4]
  Infusion related reaction: End Date/Time: Day 1/2 hours
  Infusion related reaction: Event: Right arm cannula
  Infusion related reaction: Severity Grade: Grade 1
Cohort 5 1 mg/kg IV 4-hr infusion, participant 001-S113
  Severity of event: Localized IRR, Right arm: Grade 1
Cohort 5 1 mg/kg IV 4-hr infusion, participant 001-S117
  Severity of event: Localized IRR, Left arm: Grade 1
[5]
  Severity of event: Lightheadedness: Grade 1
  Severity of event: Localized IRR, Left arm: Grade 1
Cohort 5 1 mg/kg IV 4-hr infusion, participant 001-S120
  Severity of event: Pain at dosing site, Left arm: Grade 1
Cohort 5 1 mg/kg IV 4-hr infusion, participant 001-S122
  Severity of event: Localized IRR, Left arm: Grade 1
[6]
  Severity of event: IRR, Right arm; pain in region of right biceps muscle: Grade 1
  Severity of event: Right-sided headache: Grade 1
Cohort 5, 1 mg/kg over 4 hours in 250 mL, 6 participants, all Grade 1
  IRRs, events: 9
[7]
  Number of Participants Reporting at least: Onc TEAE Leading to Study Withdrawal, n (%): 0
  Number of Participants Reporting at least: One Dose-Limiting Toxicity, n (%): 0
  Number of Participants Reporting at least: One Related TEAE, n (%): 6 (100%)
  Number of Participants Reporting at least: One Serious TEAE, n (%): 0
  Number of Participants Reporting at least: One TEAE Leading to Study Drug Discontinuation, n (%): 0
  Number of Participants Reporting at least: One TEAE with Common Terminology Criteria for Adverse Events (CTCAE) Toxicity ≥ Grade 3, n (%): 0
  Number of Participants Reporting at least: One TEAE, n (%): 6 (100%)
  One Related TEAE, m: 11
  One TEAE, m: 20
  Participants With At Least 1 TEAE, n (%): 6 (100%)
  Participants With At Least 1 TEAE, occurrences m: 20
  Participants With At Least 1 Treatment-Related TEAE, n (%): 6 (100%)
  Participants With At Least 1 Treatment-Related TEAE, occurrences m: 11
  TEAE Severity Grade 1, m: 19
  TEAE Severity Grade 1, n (%): 6 (100%)
  TEAE Severity Grade 2, m: 1
  TEAE Severity Grade 2, n (%): 1 (16.7%)
  TEAE by system organ class: Blood and Lymphatic System Disorders, participants n (%): 0
  TEAE by system organ class: Gastrointestinal Disorders, occurrences m: 1
  TEAE by system organ class: Gastrointestinal Disorders, participants n (%): 1 (16.7%)
  TEAE by system organ class: General Disorders and Administration Site Conditions, occurrences m: 9
  TEAE by system organ class: General Disorders and Administration Site Conditions, participants n (%): 6 (100%)
  TEAE by system organ class: Infections and Infestations, participants n (%): 0
  TEAE by system organ class: Injury, Poisoning, and Procedural Complications, occurrences m: 5
  TEAE by system organ class: Injury, Poisoning, and Procedural Complications, participants n (%): 4 (66.7%)
  TEAE by system organ class: Musculoskeletal and Connective Tissue Disorders, occurrences m: 1
  TEAE by system organ class: Musculoskeletal and Connective Tissue Disorders, participants n (%): 1 (16.7%)
  TEAE by system organ class: Nervous System Disorders, occurrences m: 2
  TEAE by system organ class: Nervous System Disorders, participants n (%): 2 (33.3%)
  TEAE by system organ class: Respiratory, Thoracic, and Mediastinal disorders, participants n (%): 0
  TEAE by system organ class: Skin and Subcutaneous Tissue Disorders, occurrences m: 2
  TEAE by system organ class: Skin and Subcutaneous Tissue Disorders, participants n (%): 2 (33.3%)
  TEAE by system organ class: Vascular Disorders, participants n (%): 0
  TEAE severity Grade 1, occurrences m: 19
  TEAE severity Grade 1, participants n (%): 6 (100%)
  TEAE severity Grade 2, occurrences m: 1
  TEAE severity Grade 2, participants n (%): 1 (16.7%)
  TEAE severity Grade 3, participants n (%): 0
  TEAE severity Grade 4, participants n (%): 0
  TEAE severity Grade 5, participants n (%): 0
  Treatment-related TEAE: Abdominal distension, participants n (%): 0
  Treatment-related TEAE: Blood and Lymphatic System Disorders, participants n (%): 0
  Treatment-related TEAE: Constipation, participants n (%): 0
  Treatment-related TEAE: Diarrhea, participants n (%): 0
  Treatment-related TEAE: Dizziness, occurrences m: 1
  Treatment-related TEAE: Dizziness, participants n (%): 1 (16.7%)
  Treatment-related TEAE: Feeling hot, participants n (%): 0
  Treatment-related TEAE: Gastrointestinal Disorders, occurrences m: 1
  Treatment-related TEAE: Gastrointestinal Disorders, participants n (%): 1 (16.7%)
  Treatment-related TEAE: General Disorders and Administration Site Conditions, occurrences m: 7
  Treatment-related TEAE: General Disorders and Administration Site Conditions, participants n (%): 6 (100%)
  Treatment-related TEAE: Headache, occurrences m: 1
  Treatment-related TEAE: Headache, participants n (%): 1 (16.7%)
  Treatment-related TEAE: Infusion related reaction, participants n (%): 0
  Treatment-related TEAE: Infusion site discomfort, occurrences m: 1
  Treatment-related TEAE: Infusion site discomfort, participants n (%): 1 (16.7%)
  Treatment-related TEAE: Infusion site pain, occurrences m: 3
  Treatment-related TEAE: Infusion site pain, participants n (%): 3 (50.0%)
  Treatment-related TEAE: Infusion site reaction, occurrences m: 2
  Treatment-related TEAE: Infusion site reaction, participants n (%): 2 (33.3%)
  Treatment-related TEAE: Infusion site swelling, occurrences m: 1
  Treatment-related TEAE: Infusion site swelling, participants n (%): 1 (16.7%)
  Treatment-related TEAE: Injury, Poisoning, and Procedural Complications, participants n (%): 0
  Treatment-related TEAE: Macule, occurrences m: 1
  Treatment-related TEAE: Macule, participants n (%): 1 (16.7%)
  Treatment-related TEAE: Musculoskeletal and Connective Tissue Disorders, participants n (%): 0
  Treatment-related TEAE: Myalgia, participants n (%): 0
  Treatment-related TEAE: Nervous system disorders, occurrences m: 2
  Treatment-related TEAE: Nervous system disorders, participants n (%): 2 (33.3%)
  Treatment-related TEAE: Oropharyngeal pain, participants n (%): 0
  Treatment-related TEAE: Orthostatic hypotension, participants n (%): 0
  Treatment-related TEAE: Phlebitis, participants n (%): 0
  Treatment-related TEAE: Respiratory, Thoracic, and Mediastinal disorders, participants n (%): 0
  Treatment-related TEAE: Skin and Subcutaneous Tissue Disorders, occurrences m: 1
  Treatment-related TEAE: Skin and Subcutaneous Tissue Disorders, participants n (%): 1 (16.7%)
  Treatment-related TEAE: Thrombocytopenia, participants n (%): 0
  Treatment-related TEAE: Vascular Disorders, participants n (%): 0
  Treatment-related TEAE: Vessel puncture site erythema, participants n (%): 0
  Treatment-related TEAE: Vessel puncture site pain, participants n (%): 0
  Treatment-related TEAE: Vomiting, occurrences m: 1
  Treatment-related TEAE: Vomiting, participants n (%): 1 (16.7%)
Cohorts 1-4
  adverse events judged Grade 3 or higher: none
  changes in laboratory parameters: No clinically significant changes
  related IRRs, events: 13
  serious adverse events (SAEs) or deaths: no reports
  subjects with related IRRs: 7
  subjects with study drug infusion interrupted: 3
Cohorts 1-4 (0.05-0.5 mg/kg IV), 29 subjects in the SEQ ID NO: 1 arm
  subjects with at least one TEAE: 25 (86.2%) subjects (%)
Cohorts 1-4, 29 subjects
  TEAEs in SOC General disorders and administration site conditions: 24.1%
  TEAEs in SOC Injury, poisoning, and procedural complication: 48.3%
  Vascular access site pain: 34.5%
  subjects reporting Grade 2 TEAEs: 13.8%
  subjects with treatment related-TEAEs: 24.1%
Cohorts 1-4, 29 subjects in the SEQ ID NO: 1 arm
  total TEAEs reported: 52
Cohorts 1-5
  AEs judged Grade 3 or higher: none
  serious TEAEs: no reports
  treatment-emergent DLTs: no reports
Cohorts 1-5, 35 participants
  TEAEs in SOC General disorders and administration site conditions: 37.1%
  TEAEs in SOC Injury, Poisoning, and Procedural Complications: 51.4%
  participants with at least 1 TEAE deemed related to treatment: 37.1%
  participants with at least 1 TEAE leading to study drug discontinuation: 5.7%
  total TEAE events: 72
Cohorts 1-5, 35 participants (n=10)
  Vascular access site pain: 28.6%
Cohorts 1-5, by treatment assignment or dose level
  Holter monitoring and electrocardiograms: no trends of concern
[8]
  hematology and coagulation: no clinically significant patterns of change
  serum chemistry: no clinically significant patterns of change
Cohorts 1-5, of 47 participants, all in active treatment group
  participants with study drug infusion interrupted: 8 (17.0%) participants (%)
Pooled SEQ ID NO: 1 (N = 29)
  Participants Reporting at least One Related TEAE, %: 24.1%
  Related TEAE Blood and lymphatic system disorders, n participants: 0
